For one assay, the system named is HCT-116 cells. Put plainly: Cell viability (cytotoxicity, LDH release) assay. The class given is cell-based. The conditions noted are these: Homo sapiens, 24 h; for viability at 100 µg/mL: read-out: percent of viable cells. An outline of the steps:
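Human colorectal HCT-116 cells exposed to compounds at 10, 25, 50 and 100 µg/mL in DMEM with 10% FBS for 24 h at 37 °C. LDH released into the supernatant measured at 600 nm; viability given as % of untreated control OD (mean ± SD, n = 3), 0.1% Triton X-100 as positive control.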
On the technique in general: LDH in the medium is a marker of cell lysis.

The test system of assay [1] is CDK2 protein in HCT-116 cells. Put plainly: Quantitative determination of CDK2 concentration in HCT-116 cell lysates (Human CDK2 ELISA Kit). In kind it is cell-based. The conditions noted are these: for downregulation of CDK2 protein expression, fold: as compared to the negative control; for concentration of CDK2 in lysate of treated HCT-116 cells: negative control 7.466 ng/mL. The procedure:
First, the commercial Human CDK2 ELISA Kit was used to estimate concentrations of the protein in the lysate of HCT-116 cells treated with 4d and 4k. The results were compared with the positive (cells treated with the reference CDK inhibitor, BMS-265246) and negative control experiments.
The in vitro quantitative measurement of concentration of CDK2 in lysates of HCT-116 cells was carried out using a commercial Human CDK2 ELISA Kit (cat. no.: LS-F22176; LifeSpan Biosciences Inc., Seattle, WA, USA) in the presence or absence of the studied compounds (4d and 4k), following the manufacturer’s instructions. Briefly, standards, blanks or samples were first incubated in the corresponding wells for 90 min at 37 °C. Then, biotinylated detection antibody was added to each well and the plate was incubated for 1 h at 37 °C followed by the addition of an Avidin–Horseradish Peroxidase (HRP) conjugate which binds to the biotin. After incubation of the mixture for 30 min at 37 °C, unbound Avidin–HRP conjugate was washed away and a TMB substrate was then added which reacts with the HRP enzyme, resulting in color development. After that, the reaction was stopped using a sulfuric acid stop solution to terminate the color-development reaction and the optical density of each well was measured using a microplate reader at 450 nm. BMS-265246 was used as the standard drug for inhibition of CDK2. All measurements were performed in triplicate.

The test system of assay [2] is CDK2 gene in HCT-116 cells. The assay is described as follows: qRT-PCR expression profile of the CDK2 gene in HCT-116 cells. In kind it is cell-based, human. To be noted: 24 h, relative to untreated cells (given as decreased x-fold). The procedure:
Second, the expression profiles of the CDK2 gene in HCT-116 cells treated with compounds 4d and 4k were determined. The results were compared with the positive control (cells treated with the well-known cytotoxic drug 5-fluorouracil) and the negative control (untreated cells).
Primers specific for the cyclin-dependent kinase-2 (CDK2) and caspase-3 genes were designed using primer blast (https://www.ncbi.nlm.nih.gov/tools/primer-blast/, accessed on 31 October 2021) or primer3 (https://primer3.ut.ee/, accessed on 31 October 2021) software. The selected genes covered the two main groups of the cyclin-dependent kinase-2 (CDK2) gene and the caspase-3 gene. Primers were used in RT-qPCR analysis to amplify fragments of 100–200 bp in length (Table 7).
Total RNA was extracted from each cell culture flask using the RNeasy extraction kit (RNeasy micro kit, cat. no. 74004). Up to 1 × 10^6 cells, depending on the cell line, were disrupted in buffer RLT and homogenized and disrupted. Ethanol was then added to the lysate, creating conditions that promote the selective binding of RNA to the RNeasy membrane. […] The amount of extracted RNA was quantified by estimating the absorbance at 260 nm. The purity of the RNA was checked by measuring the ratio of the absorbance at 260 and 280 nm, where a ratio ranging from 1.8 to 2.0 was taken to be pure. […]
Quantitative real-time PCR was carried out with the Thermal Cycler Rotorgene Real-Time System II (Rotorgene, South Korea) with the SYBR kit. […]
The relative expression levels through the average cycle threshold (CT) were successfully detected. Average CT values were calculated from the triplicate experiment conducted for each gene; the CT value was detected by subtracting the average CT value of genes from the CT value of actin and GAPDH genes. The relative expression levels of the target genes were calculated using the ΔΔ Ct method and the reference genes GAPDH for the cancer cell line. Finally, a fold change equation […] was used to estimate relative expression levels, while the standard deviation was calculated from the replicated experimental data.
(Quantitative PCR measures a nucleic acid by following its amplification.)

[3] abbreviates: read-out: Mean IC50 (µM) of cytotoxicity.
The mark [4] stands for this setting: read-out: Mean IC50 (µg/mL) of cytotoxicity.

Each structure is given as a SMILES string. Where two headings read alike, the source gives them in different places.

With `COc1cc(C2C(C#N)=C(N)OC(C)=C2C(=O)OCc2ccccc2)cc(OC)c1OC` (stereo not drawn) [4d, 6-Amino-5-cyano-2-methyl-4-(3,4,5-trimethoxy-phenyl)-4H-pyran-3-carboxylic acid benzyl ester], in the assay on HCT-116 cells, the viability at 100 µg/mL lay within 11 to 32.5%. Besides, the IC50 in the assay on HCT-116 cells (setting [3]) amounted to 75.1 ± 5.09 µM; in the assay on HCT-116 cells (setting [4]) it was 32.8 ± 2.22 µg/mL. Also, the “downregulation of CDK2 protein expression, fold” value in assay [1] is on record as 1.9 fold. The “concentration of CDK2 in lysate of treated HCT-116 cells” value in assay [1] is recorded as 4.634 ng/mL. For the same compound, the “CDK2 transcript level, fold” value in assay [2] worked out at 0.50 fold.

`CC1=C(C(=O)OCc2ccccc2)C(c2ccc(C#N)cc2)C(C#N)=C(N)O1` (stereo not drawn) [4k, 6-Amino-5-cyano-4-(4-cyano-phenyl)-2-methyl-4H-pyran-3-carboxylic acid benzyl ester]: the viability at 100 µg/mL in the assay on HCT-116 cells is 11 to 32.5%. The values for the IC50 with HCT-116 cells (setting [3]) and in the assay with HCT-116 cells (setting [4]) were 85.9 ± 7.61 µM and 31.9 ± 2.83 µg/mL, respectively. Further, the “downregulation of CDK2 protein expression, fold” value in assay [1] was found to be 1.6 fold. Further, in assay [1], the “concentration of CDK2 in lysate of treated HCT-116 cells” value is listed as 3.932 ng/mL. The “CDK2 transcript level, fold” value in assay [2] is 0.45 fold.

These data come from PMC9317316, “Synthesis and Evaluation of Some New 4H-Pyran Derivatives as Antioxidant, Antibacterial and Anti-HCT-116 Cells of CRC, with Molecular Docking, Antiproliferative, Apoptotic and ADME Investigations” (Pharmaceuticals, 2022).
